Data set [1] has as its target p38 MAPKα isoform (MAPK14) (Homo sapiens (Human), UniProt Q16539). The data set can be described thus: p38 MAPKα enzyme inhibition (FRET, Z-LYTE), Method 1. The data set is classed as biochemical. The note with it: Method 1 (Table 4a1).
For data set [2], the system named is Differentiated U937 cells. The data set is described as follows: (l) Cell viability: MTT assay. The data set is classed as cell-based, human. The note with it: 1 μg/mL. In outline:
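MTT read-out (1 h, absorbance 550 nm) on d-U937 cells after pre-incubation with 1 or 10 μg/mL compound under two regimes: 4 h, 5% FCS, or 24 h, 10% FCS RPMI1640. Values are percent loss of viability relative to vehicle (0.5% DMSO), so increases are reported as negative.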

The test system of data set [3] is β-catenin in d-U937 cells. The data set can be described thus: (m) Accumulation of β catenin in d-U937 cells. The data set is classed as cell-based, human. As for the experimental part:
U937 cells, a human monocytic cell line, are differentiated into macrophage-type cells by incubation with PMA; (100 ng/mL) for between 48 to 72 hr. The cells are then incubated with either final concentrations of test compound or vehicle for 18 hr. The induction of β-catenin by the test compounds is stopped by replacing the media with 4% formaldehyde solution. Endogenous peroxide activity is neutralised by incubating with quenching buffer (100 μL, 0.1% sodium azide, 1% H2O2 in PBS with 0.05% Tween-20) for 20 min. The cells are washed with washing buffer (200 μL; PBS containing 0.05% Tween-20) and incubated with blocking solution (200 μL; 5% milk in PBS) for 1 hr, re-washed with washing buffer (200 μL) and then incubated overnight with anti-β-catenin antibody solution (50 μL) in 1% BSA/PBS (BD, Oxford, UK).
After washing with washing buffer (3×200 μL; PBS containing 0.05% Tween-20), cells are incubated with an HRP-conjugated secondary antibody solution (100 μL) in 1% BSA/PBS (Dako, Cambridge, UK) and the resultant signal is determined colourimetrically (OD: 450 nm with a reference wavelength of 655 nm) using TMB substrate (50 μL; R&D Systems, Abingdon, UK). This reaction is stopped by addition of 1N H2SO4 solution (50 μL). Cells are then washed with washing buffer and 2% crystal violet solution (50 μL) is applied for 30 min. After washing with washing buffer (3×200 μL), 1% SDS (100 μL) is added to each well and the plates are shaken lightly for 1 hr prior to measuring the absorbance at 595 nm (Varioskan® Flash, Thermo-Fisher Scientific).
The measured OD450-655 readings are corrected for cell number by dividing the OD450-655 by the OD595 readings. […] A signal less than 0.15 (15%) of that observed for the standard control is designated as “-ve”.

The structures appear in SMILES notation. pIC50: −log10 of the molar value. Some results are limits rather than exact numbers.

p38 MAPKα isoform (MAPK14), sequence (Q16539 whole entry, canonical isoform): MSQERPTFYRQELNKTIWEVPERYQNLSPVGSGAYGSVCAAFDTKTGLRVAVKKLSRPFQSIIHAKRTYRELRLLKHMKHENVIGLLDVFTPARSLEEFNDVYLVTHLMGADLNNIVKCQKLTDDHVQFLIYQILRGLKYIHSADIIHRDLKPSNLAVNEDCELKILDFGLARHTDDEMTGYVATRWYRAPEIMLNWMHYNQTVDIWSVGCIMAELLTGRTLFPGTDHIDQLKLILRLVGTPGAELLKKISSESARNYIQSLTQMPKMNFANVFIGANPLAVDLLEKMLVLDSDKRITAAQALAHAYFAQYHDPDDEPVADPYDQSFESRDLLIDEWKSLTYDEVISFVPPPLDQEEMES

In the case of `COc1cc(Nc2nccc(Oc3ccc(NC(=O)Nc4cc(C(C)(C)C)nn4-c4ccc(C)cc4)c4ccccc34)n2)cc(C(=O)NCCO)c1` [Example 64, 3-((4-((4-(3-(3-(tert-butyl)-1-(p-tolyl)-1H-pyrazol-5-yl)ureido)naphthalen-1-yl)oxy)pyrimidin-2-yl)amino)-N-(2-hydroxyethyl)-5-methoxybenzamide], in data set [1], the pIC50 is 8.10. Moreover, in data set [2], the “Cell viability at time point in d-U937 cells 4 h” value is “−ve (−ve and +ve indicate that the value is below and above respectively, the no significant effect threshold, defined as 30% inhibition at 1 μg/mL at the time point indicated.)”; the “Cell viability at time point in d-U937 cells 24 h” value is “−ve (−ve and +ve indicate that the value is below and above respectively, the no significant effect threshold, defined as 30% inhibition at 1 μg/mL at the time point indicated.)”.
`COc1ccc(-n2nc(C(C)C)cc2NC(=O)Nc2ccc(Oc3ccnc(Nc4cc(OC)cc(C(=O)NCCO)c4)n3)c3ccccc23)cc1` [Example 65, N-(2-hydroxyethyl)-3-((4-((4-(3-(3-isopropyl-1-(4-methoxyphenyl)-1H-pyrazol-5-yl)ureido)naphthalen-1-yl)oxy)pyrimidin-2-yl)amino)-5-methoxybenzamide] gave a pIC50 in data set [1] of 7.64. In addition, in data set [2], the “Cell viability at time point in d-U937 cells 4 h” value is “−ve (−ve and +ve indicate that the value is below and above respectively, the no significant effect threshold, defined as 30% inhibition at 1 μg/mL at the time point indicated.)”; the “Cell viability at time point in d-U937 cells 24 h” value is “−ve (−ve and +ve indicate that the value is below and above respectively, the no significant effect threshold, defined as 30% inhibition at 1 μg/mL at the time point indicated.)”.
Consider `COCCNC(=O)c1cc(Nc2nccc(Oc3ccc(NC(=O)Nc4cc(C(C)C)nn4-c4ccc(C)cc4)c4ccccc34)n2)cc(OC)c1` [Example 66, 3-((4-((4-(3-(3-isopropyl-1-(p-tolyl)-1H-pyrazol-5-yl)ureido)naphthalen-1-yl)oxy)pyrimidin-2-yl)amino)-5-methoxy-N-(2-methoxyethyl)benzamide], for which the negative-log IC50 (pIC50) in data set [1] is 7.62. In addition, in data set [2], the “Cell viability at time point in d-U937 cells 4 h” value was “−ve (−ve and +ve indicate that the value is below and above respectively, the no significant effect threshold, defined as 30% inhibition at 1 μg/mL at the time point indicated.)”; the “Cell viability at time point in d-U937 cells 24 h” value is “−ve (−ve and +ve indicate that the value is below and above respectively, the no significant effect threshold, defined as 30% inhibition at 1 μg/mL at the time point indicated.)”.
In data set [1], `COCCNC(=O)c1cc(Nc2nccc(Oc3ccc(NC(=O)Nc4cc(C(C)(C)C)nn4-c4ccc(C)cc4)c4ccccc34)n2)cc(OC)c1` [Example 67, 3-((4-((4-(3-(3-(tert-butyl)-1-(p-tolyl)-1H-pyrazol-5-yl)ureido)naphthalen-1-yl)oxy)pyrimidin-2-yl)amino)-5-methoxy-N-(2-methoxyethyl)benzamide] showed a pIC50 of 7.62. Besides, in data set [2], the “Cell viability at time point in d-U937 cells 4 h” value is “−ve (−ve and +ve indicate that the value is below and above respectively, the no significant effect threshold, defined as 30% inhibition at 1 μg/mL at the time point indicated.)”; the “Cell viability at time point in d-U937 cells 24 h” value was “−ve (−ve and +ve indicate that the value is below and above respectively, the no significant effect threshold, defined as 30% inhibition at 1 μg/mL at the time point indicated.)”.
For the molecule `COc1cc(Nc2nccc(Oc3ccc(NC(=O)Nc4cc(C(C)C)nn4-c4ccc(C)cc4)c4ccccc34)n2)cc(C(=O)N(C)CCN2CCOCC2)c1` [Example 68, 3-((4-((4-(3-(3-isopropyl-1-(p-tolyl)-1H-pyrazol-5-yl)ureido)naphthalen-1-yl)oxy)pyrimidin-2-yl)amino)-5-methoxy-N-methyl-N-(2-morpholinoethyl)benzamide], the pIC50 in data set [1] is above 9.00. Besides, in data set [2], the “Cell viability at time point in d-U937 cells 4 h” value is “−ve (−ve and +ve indicate that the value is below and above respectively, the no significant effect threshold, defined as 30% inhibition at 1 μg/mL at the time point indicated.)”; the “Cell viability at time point in d-U937 cells 24 h” value is “−ve (−ve and +ve indicate that the value is below and above respectively, the no significant effect threshold, defined as 30% inhibition at 1 μg/mL at the time point indicated.)”.
For `COc1cc(Nc2nccc(Oc3ccc(NC(=O)Nc4cc(C(C)C)nn4-c4ccc(C)cc4)c4ccccc34)n2)cc(C(=O)N2CCN(C)CC2)c1` [Example 69, 1-(3-isopropyl-1-(p-tolyl)-1H-pyrazol-5-yl)-3-(4-((2-((3-methoxy-5-(4-methylpiperazine-1-carbonyl)phenyl)amino)pyrimidin-4-yl)oxy)naphthalen-1-yl)urea], the pIC50 in data set [1] was 8.70. Also, in data set [2], the “Cell viability at time point in d-U937 cells 4 h” value is “−ve (−ve and +ve indicate that the value is below and above respectively, the no significant effect threshold, defined as 30% inhibition at 1 μg/mL at the time point indicated.)”; the “Cell viability at time point in d-U937 cells 24 h” value is “−ve (−ve and +ve indicate that the value is below and above respectively, the no significant effect threshold, defined as 30% inhibition at 1 μg/mL at the time point indicated.)”.
For `COc1ccc(Nc2nccc(Oc3ccc(NC(=O)Nc4cc(C(C)C)nn4-c4ccc(C)cc4)c4ccccc34)n2)cc1C(=O)NCCN1CCOCC1` [Example 70, 5-((4-((4-(3-(3-isopropyl-1-(p-tolyl)-1H-pyrazol-5-yl)ureido)naphthalen-1-yl)oxy)pyrimidin-2-yl)amino)-2-methoxy-N-(2-morpholinoethyl)benzamide], in data set [1], the negative-log IC50 (pIC50) was 8.30. For the same molecule, in data set [2], the “Cell viability at time point in d-U937 cells 4 h” value was “−ve (−ve and +ve indicate that the value is below and above respectively, the no significant effect threshold, defined as 30% inhibition at 1 μg/mL at the time point indicated.)”; the “Cell viability at time point in d-U937 cells 24 h” value is “−ve (−ve and +ve indicate that the value is below and above respectively, the no significant effect threshold, defined as 30% inhibition at 1 μg/mL at the time point indicated.)”.
Turning to `COc1cc(Nc2cc(Oc3ccc(NC(=O)Nc4cc(C(C)C)nn4-c4ccc(C)cc4)c4ccccc34)ncn2)cc(C(=O)NCCN2CCOCC2)c1` [Example 71, 3-((6-((4-(3-(3-isopropyl-1-(p-tolyl)-1H-pyrazol-5-yl)ureido)naphthalen-1-yl)oxy)pyrimidin-4-yl)amino)-5-methoxy-N-(2-morpholinoethyl)benzamide], the negative-log IC50 (pIC50) in data set [1] is 8.70. Further, in data set [2], the “Cell viability at time point in d-U937 cells 4 h” value was “−ve (−ve and +ve indicate that the value is below and above respectively, the no significant effect threshold, defined as 30% inhibition at 1 μg/mL at the time point indicated.)”; the “Cell viability at time point in d-U937 cells 24 h” value is “−ve (−ve and +ve indicate that the value is below and above respectively, the no significant effect threshold, defined as 30% inhibition at 1 μg/mL at the time point indicated.)”.
Take `COc1cc(Nc2cc(Oc3ccc(NC(=O)Nc4cc(C(C)(C)C)nn4-c4ccc(C)cc4)c4ccccc34)ncn2)cc(C(=O)NCCN2CCOCC2)c1` [Example 72, 3-((6-((4-(3-(3-(tert-butyl)-1-(p-tolyl)-1H-pyrazol-5-yl)ureido)naphthalen-1-yl)oxy)pyrimidin-4-yl)amino)-5-methoxy-N-(2-morpholinoethyl)benzamide]: the negative-log IC50 (pIC50) in data set [1] was above 9.00. In addition, in data set [2], the “Cell viability at time point in d-U937 cells 4 h” value was “−ve (−ve and +ve indicate that the value is below and above respectively, the no significant effect threshold, defined as 30% inhibition at 1 μg/mL at the time point indicated.)”; the “Cell viability at time point in d-U937 cells 24 h” value is “−ve (−ve and +ve indicate that the value is below and above respectively, the no significant effect threshold, defined as 30% inhibition at 1 μg/mL at the time point indicated.)”.
On to `C#Cc1cc(Nc2nccc(Oc3ccc(NC(=O)Nc4cc(C(C)(C)C#N)nn4-c4ccc(C)cc4)c4ccccc34)n2)cc(C(=O)NCCN2CCOCC2)c1` [Example 78, 3-((4-((4-(3-(3-(2-Cyanopropan-2-yl)-1-(p-tolyl)-1H-pyrazol-5-yl)ureido)-naphthalen-1-yl)oxy)pyrimidin-2-yl)amino)-5-ethynyl-N-(2-morpholinoethyl)benzamide], for which the results for the “% β-catenin induction” value in data set [3] (1 μg/mL test compound) and in data set [3] (5 μg/mL test compound) were 9% and 0%, respectively.
The corresponding values for `C#Cc1cc(Nc2nccc(Oc3ccc(NC(=O)Nc4cc(C(C)(C)C)nn4-c4ccc(C)cc4)c4ccccc34)n2)cc(C(=O)NC(C)(C)CN2CCOCC2)c1` [Example 82, 3-((4-((4-(3-(3-(tert-Butyl)-1-(p-tolyl)-1H-pyrazol-5-yl)ureido)naphthalen-1-yl)oxy)pyrimidin-2-yl)amino)-5-ethynyl-N-(2-methyl-1-morpholinopropan-2-yl)-benzamide] are 0% and 9%.

Values taken from patent publication US9701670B2, “Pyrazolyl-ureas as kinase inhibitors” (RESPIVERT LIMITED, priority 2013, dated 2017).
